Entries after “also recorded” stand apart in the source; their conditions may differ.
Columns and labels:
TGF β1 = TGF β1 ELISA on F-ZC tissue lysates; assay type: in vivo, Fischer 344 rats
Procedure: (§1) Schedule and Dose of Drug Administration.
TGF β1 ELISA. Active TGF β1 ELISA was carried out in triplicate using DUOSET® kit (DY240, Genzyme Corporation, Cambridge, Mass.) as described previously (Danielpour, D., J Immunol Methods (1993) 158(1):17-25) with tissue lysates from chamber contents generated as detailed above. Latent form of […] was converted to immunoreactive form to ascertain total […] content. The data is shown as pg per mg of protein in the tissues.

[1] = tested on: wound healing response (granulation tissue, neovascularization) in F-ZC; assay: Fibrin Z-chamber (F-ZC) wound healing assay, systemic SU5416 treatment; assay type: in vivo, Fischer 344 rats; conditions: SUGEN 5416 20 mg/kg, control about 45, p=0.0009
[2] = tested on: tumor cells embedded in fibrin gel (T-ZC); assay: Tumor cell-containing chambers (T-ZC) implanted in animals, systemic SUGEN 5416 treatment; assay type: in vivo
Procedure: A tumor cell chamber, or tumor Z-chamber (T-ZC) is prepared by adding tumor cells to the fibrinogen solution before adding the solution to the chamber. The tumor cells are embedded in fibrin gel. Implantation is accomplished by making two 2 cm long incisions on the backs of the animals, followed by making blunt dissections on both sides to establish a pocket in the subcutaneous space. The chambers are inserted into these pockets. Clips are used to close the incision in rats and sutures are used for mice. A topical antibiotic, such as that sold under the registered trademark NEOSPORIN® by Glaxo-Wellcome, Inc., is applied over the incision. To harvest the chambers, a long incision is made on the backs of the animals. The surrounding fascia is observed and noted. The chambers are pushed from outside the animal and pulled out. Pictures are taken at this stage to observe differences, if any, between tissue within and encompassing the chamber and the surrounding tissue. The mesh and issue agglomerated thereon are cut from the chamber with scalpel (preferably a #11 blade) and then processed in accordance with a desired analysis approach.

[3] = tested on: wound healing response (granulation tissue, neovascularization) in F-ZC; assay: Fibrin Z-chamber (F-ZC) wound healing assay, systemic SU5416 treatment; assay type: in vivo, Fischer 344 rats; conditions: for residual D-dimer retention: SU5416 vs control (FIG. 16); for body weight loss: SU5416 20 mg/kg, F-ZC implantation, 10-12 days, vs control (FIG. 13)
Procedure: as §1
Fibrin Z-Chambers (F-ZC): In accordance with the present invention, F-ZC were employed in a fibrin gel based in vivo assay. In F-ZC, fibrinogen and thrombin are added to a dual porous chamber through a port and chambers are then implanted in the subcutaneous tissue of the rats and harvested at day 12 post-implantation to assess the wound healing response generated due to presence of fibrin. These chambers are constructed from customized PLEXIGLAS® rings with internal diameter of 10 mm and have an access port drilled on the side. The two open surfaces are covered by nylon mesh (pore size 180 microns, # NY8H04700, Millipore, Mass.) glued to the rings. Fibrinogen (# 341578, CalBiochem, La Jolla, Calif.) was prepared in DMEM (# 11995-065, Gibco BRL, Rockville, Md.) at a concentration of 4 mg/ml and was converted to fibrin by addition of thrombin (#605160, CalBiochem, La Jolla, Calif.) inside the chambers.
Fischer 344 rats were anesthetized, hair removed using the clippers and the surface was surgically prepared. Two small midline skin incisions were made in the dorsal region about 4 cm apart. Fascia was blunt dissected and small pockets were created on both sides along the midline incision. Thus, four F-ZCs were implanted per animal.
Quantitation of Immunohistochemistry. Microvessel density (MVD) was calculated as described by Weidner (Weidner, N., et al., J Natl Cancer Inst (1992) 84(24):1875-87). Briefly, three hot spots or areas with highest visible blood vessels density (marked by the vessel marker) per sample section were selected and number of blood vessels counted at a high power field (400×). The data was then pooled for the control and treated tissues to arrive at the mean values for each group. Collagen was semi-quantitatively estimated on a scale of 0-4. Zero was described as negligible staining, 1 as weak, 2 as moderate, 3 as strong and 4 as complete staining as observed in dermis.
D-Dimer Measurements. The MINIQUANT™ D-Dimer (Cat # 1447, Biopool AB of Umea, Sweden) assay was used to measure residual D-Dimer in the chamber content lysates generated as detailed above. […] The measurements were carried out in duplicate. Each measurement is from pooled tissue for the treatment and control groups.

[4] = tested on: wound healing response (granulation tissue) in fibrin-containing chambers; assay: F-ZC wound healing response with chamber administration of angiostatin; assay type: in vivo
Procedure: FIGS. 20A and 20B are photographs showing gross examination of fibrin-containing chambers of the present invention in which angiostatin was administered in laboratory animals in accordance with techniques described herein above for Laboratory Examples 1-9. […] Fibrin is inherently pale yellow in color and lack of blood vessels in angiostatin treated chambers results in the paler appearance of the chambers.
FIGS. 20C and 20D are photomicrographs showing depth (represented by line with arrowheads at each end) of granulation tissue developed inside fibrin-containing chambers of the present invention. Depth granulation was used as a measure for the healing response.
Scale=depth of granulation tissue (×10 microns).

[5] = Table 1, SU5416 vs control, n = 10

Cc1cc(C)c(C=C2C(=O)Nc3ccccc32)[nH]1 [SU5416, 3-(2,4-Dimethylpyrrol-5-yl)methylene-2-indolinone]
reduction in active TGF β1 level (TGF β1; F-ZC tissue, SU5416 20 mg/kg IP vs controls): 90%
total TGF β1 (TGF β1; F-ZC tissue, SU5416 treated vs controls): increased
Active TGF β1 (TGF β1; Table 1, F-ZC tissue lysates, SU5416, control 1.45 ± 0.1): 0.11 ± 0.05 pg per mg of protein
Latent TGF β1 (TGF β1; Table 1, F-ZC tissue lysates, SU5416, control 7.72 ± 0.5): 11.85 ± 0.8 pg per mg of protein
Difference, Active TGF β1 (TGF β1; [5]): 93%, n = 10
Difference, Latent TGF β1 (TGF β1; [5]): 35%, n = 10
average MVD at 200× magnification [1]: about 30
body weight loss ([2]; SUGEN 5416 20 mg/kg systemic, T-ZC implantation, vs control animals (FIG. 9), 20 mg/kg): no significant body weight loss; also recorded: no significant body weight lost
tumor growth delay ([2]; SUGEN 5416 20 mg/kg systemic, T-ZC, p<0.0001 (FIG. 10)): significant tumor growth delay
increase in tumor volume ([2]; SUGEN 5416 20 mg/kg systemic, T-ZC, control about 90% (FIG. 10)): 40%
microvessel density (MVD) change ([2]; T-ZC, SUGEN 5416 20 mg/kg, p=0.11 (FIG. 11)): did not change
MVD per high power (200×) focal (HPF) ([2]; T-ZC, SUGEN 5416 20 mg/kg, control about 15 (FIG. 11)): about 13
residual D-dimer retention ([2]; T-ZC, SUGEN 5416 systemic vs control (FIG. 12)): more residual D-dimer retention
gross appearance of chambers (influx of blood vessels) ([3]; F-ZC at harvest day 12, SU5416 vs controls (FIGS. 17A, 17B)): distinctly paler color; also recorded: paler in color
collagen deposition (MT stain) ([3]; F-ZC granulation tissue, SU5416 20 mg/kg IP, p=0.0006, 20 mg/kg): distinctly decreased collagen deposition; also recorded: collagen was decreased
reduction in microvessel density vs controls ([3]; F-ZC, SU5416 20 mg/kg IP, day 12, p=0.0009): 10%
reduction of granulation tissue (depth) vs controls ([3]; F-ZC, SU5416 20 mg/kg IP, day 12, p=0.0076): 45%
granulation tissue formation ([3]; F-ZC, SU5416 20 mg/kg vs control, listed as SUGEN 5416): inhibited granulation tissue formation
decrease in collagen deposition (semi-quantitative, MT) ([3]; F-ZC, SU5416 treated vs controls): > 70%
residual D-dimer retention ([3]; F-ZC): remained elevated
residual D-dimer retention ([3]; F-ZC, listed as SUGEN 5416): increase in residual D-dimer retention
neovascularization ([3]; F-ZC, SUGEN 5416 20 mg/kg vs control): inhibited neovascularization
average depth of granulation tissue ([3]; F-ZC, SUGEN 5416 20 mg/kg, magnification 10×, control about 45 mm, p=0.0076): about 25 mm
D-dimer levels in chambers ([3]; F-ZC, SUGEN 5416, after 10-12 days of implantation, control about 4,000 ng/ml): about 13,000 ng/ml
body weight loss ([3]; 20 mg/kg): maintained their pre-treatment weights
body weight loss ([3]; listed as SUGEN 5416): no significant body weight loss
D-Dimer ([3]; Table 1, F-ZC tissue lysates (pooled), SU5416, control 4100 ± 100): 185 ± 20 ng/mL
Granulation ([3]; Table 1, F-ZC, SU5416 20 mg/kg IP, day 12, ± standard error of mean, control 466.7 ± 51.9): 256.8 ± 42.9
Collagen ([3]; Table 1, F-ZC, SU5416, semi-quantitative scale of 0-4, ± SEM, control 1.75 ± 0.25): 0.5 ± 0.18
Microvessel ([3]; Table 1, F-ZC, SU5416, ± SEM, control 28.17 ± 0.42): 26.25 ± 0.53
Difference, Microvessel ([3]; Table 1, SU5416 vs control): 10%, p = 0.006,
Difference, D-Dimer [3, 5]: 96%, n = 10
Difference, Collagen ([3]; Table 1, SU5416 vs control, p = 0.001): 72%, p = 0.001,
Difference, Granulation ([3]; Table 1, SU5416 vs control, p = 0.006): 45%, p = 0.006,

angiostatin
healing response ([4]; 1 μM angiostatin in chamber): reduction in healing response
gross appearance of chambers (influx of blood vessels) ([4]; 1 μM angiostatin in chamber vs controls (FIGS. 20A, 20B)): paler in color
granulation tissue formation (depth) ([4]; 1 μM angiostatin in chamber vs controls (FIGS. 20C, 20D, 21)): granulation tissue in controls (FIG. 20C) is distinctly more than angiostatin treated chambers; also recorded: inhibited granulation tissue formation

— patent US20040043462A1, “Chamber for in vivo screening of angiogenesis and tumor growth modulating compounds” (priority 2003, published 2004)
